Reference: paper PMC11711049 (Cancer Science, 2024)
Where “and” joins values, the source holds several entries; their conditions need not be identical. Equal entries are not always repeated.

Columns and labels:
Plasma pharmacokinetics = format: in vivo, human; conditions: for AUC / Cmax / Tmax: human, plasma, oral, 140 mg, Steady state (cycle 1, day 8), 140 mg once daily; for AUC: AUC0–tau; for AUC / Cmax: mean ± SD; for Cmax: C max; for Tmax: t max, median (range)
[1] = tested on: models harboring FGFR genetic alterations; conditions: preclinical studies; cited from earlier work
[2] = tested on: gastric cancer with FGFR2 gene amplification or FGFR2 protein high expression; experiment: Investigator-assessed tumor response
[3] = Gastric cancer (N = 9), 140 mg once daily

SMILES: CNC(=O)n1ccc2cc(Oc3ccnc(NC(=O)c4ccc(C5CCN(CCO)CC5)cc4)c3)c(OCCOC)cc21 [Tasurgratinib]
- time to C max, median values (Plasma pharmacokinetics; after the first dose and at a steady state, each tumor type): 3 to 4 h
- AUC (Plasma pharmacokinetics; Cholangiocarcinoma N = 6): 1110 ± 660 ng·h/mL
- AUC (Plasma pharmacokinetics; Gastric cancer N = 10): 4270 ± 3730 ng·h/mL
- AUC (Plasma pharmacokinetics; Total N = 16): 3080 ± 3320 ng·h/mL
- Cmax (Plasma pharmacokinetics; Cholangiocarcinoma N = 6): 95.1 ± 66.2 ng/mL
- Cmax (Plasma pharmacokinetics; Gastric cancer N = 10): 294 ± 186 ng/mL
- Cmax (Plasma pharmacokinetics; Total N = 16): 219 ± 179 ng/mL
- Tmax (Plasma pharmacokinetics; Cholangiocarcinoma N = 6): 3.95 h
- Tmax (Plasma pharmacokinetics; Gastric cancer N = 10): 3.98 h
- Tmax (Plasma pharmacokinetics; Total N = 16): 3.97 h
- antitumor activity [1]: potent antitumor activity
- BOR: CR [2, 3]: 0 (0.0) n (%)
- BOR: PD [2, 3]: 4 (44.4) n (%)
- BOR: PR [2, 3]: 1 (11.1) n (%)
- BOR: SD [2, 3]: 4 (44.4) n (%)
- DCR (CR + PR + SD) [2, 3]: 5 (55.6) n (%)
- ORR (CR + PR) [2, 3]: 1 (11.1) n (%)
- OS rate (95% CI) at 6 months [2, 3]: 22.2 (3.4, 51.3) %
- OS rate (95% CI) at 12 months [2, 3]: 11.1 (0.6, 38.8) %
- OS, median (95% CI) [2, 3]: 4.27 months and 4.27 (2.23, 7.95) months
- PFS rate (95% CI) at 6 months [2, 3]: 0.0 (NE, NE) %
- PFS rate (95% CI) at 12 months [2, 3]: 0.0 (NE, NE) %
- PFS, median (95% CI) [2, 3]: 3.25 months and 3.25 (0.95, 4.86) months
- ORR ([2]; evaluable gastric cancer patients, n = 9, 95% CI 0.3, 48.2): 11.1%
- partial responses ([2]; gastric cancer patients, one partial response): 11.1%
